In PubChem BioAssay (NCI):
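GI50: concentration for 50% inhibition of growth. The concentration for full growth arrest is given as TGI.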

Tests used:
Assay in all cases: inhibition of tumour cell growth, NCI panel, 384-well format
T-47D breast = test system: T-47D breast
NCI/ADR-RES ovarian = test system: NCI/ADR-RES ovarian
SK-MEL-5 melanoma = test system: SK-MEL-5 melanoma
OVCAR-3 ovarian = test system: OVCAR-3 ovarian
M14 melanoma = test system: M14 melanoma
TK-10 renal = test system: TK-10 renal
KM12 colon = test system: KM12 colon
SF-539 CNS = test system: SF-539 CNS
UACC-62 melanoma = test system: UACC-62 melanoma
MALME-3M melanoma = test system: MALME-3M melanoma
MCF7 breast = test system: MCF7 breast
NCI-H226 lung = test system: NCI-H226 lung
MOLT-4 leukemia = test system: MOLT-4 leukemia
OVCAR-5 ovarian = test system: OVCAR-5 ovarian
SF-295 CNS = test system: SF-295 CNS
MDA-MB-435 melanoma = test system: MDA-MB-435 melanoma
RPMI-8226 leukemia = test system: RPMI-8226 leukemia
HS 578T breast = test system: HS 578T breast
COLO 205 colon = test system: COLO 205 colon
CCRF-CEM leukemia = test system: CCRF-CEM leukemia
SNB-19 CNS = test system: SNB-19 CNS
PC-3 prostate = test system: PC-3 prostate
LOX IMVI melanoma = test system: LOX IMVI melanoma
DU-145 prostate = test system: DU-145 prostate
HT29 colon = test system: HT29 colon
OVCAR-8 ovarian = test system: OVCAR-8 ovarian
OVCAR-4 ovarian = test system: OVCAR-4 ovarian
K-562 leukemia = test system: K-562 leukemia
SK-MEL-28 melanoma = test system: SK-MEL-28 melanoma
NCI-H522 lung = test system: NCI-H522 lung
UO-31 renal = test system: UO-31 renal
MDA-MB-468 breast = test system: MDA-MB-468 breast
SW-620 colon = test system: SW-620 colon
NCI-H23 lung = test system: NCI-H23 lung
ACHN renal = test system: ACHN renal
HOP-62 NSCLC = test system: HOP-62 NSCLC
MDA-MB-231 breast = test system: MDA-MB-231 breast
SR leukemia = test system: SR leukemia
EKVX NSCLC = test system: EKVX NSCLC
HCT-15 colon = test system: HCT-15 colon
A549 NSCLC = test system: A549 NSCLC
CAKI-1 renal = test system: CAKI-1 renal
SNB-75 CNS = test system: SNB-75 CNS
SK-OV-3 ovarian = test system: SK-OV-3 ovarian
HCT-116 colon = test system: HCT-116 colon
SK-MEL-2 melanoma = test system: SK-MEL-2 melanoma
NCI-H460 NSCLC = test system: NCI-H460 NSCLC

With `O=C1Nc2ccc(I)cc2/C1=C/c1cc(Br)c(O)c(Br)c1` the GI50 (T-47D breast) was 12.8 µM, the TGI (T-47D breast) was 30 µM and the GI50 (NCI/ADR-RES ovarian) was 18 µM. It also gave a TGI (NCI/ADR-RES ovarian) of 43.5 µM, a GI50 (SK-MEL-5 melanoma) of 12.3 µM and a TGI (SK-MEL-5 melanoma) of 24.8 µM. For the same compound, the GI50 (OVCAR-3 ovarian) was 6.34 µM, the TGI (OVCAR-3 ovarian) was 19.2 µM and the GI50 (M14 melanoma) was 4.38 µM. The TGI (M14 melanoma) was 18.6 µM, the GI50 (TK-10 renal) was 21.6 µM and the TGI (TK-10 renal) was 78.1 µM. For the same compound, the GI50 (KM12 colon) was 12.5 µM, the TGI (KM12 colon) was 27.6 µM and the GI50 (SF-539 CNS) was 15.4 µM. For the same compound, the TGI (SF-539 CNS) was 30.1 µM, the GI50 (UACC-62 melanoma) was 7.69 µM and the TGI (UACC-62 melanoma) was 21 µM. For the same compound, the GI50 (MALME-3M melanoma) was 4.43 µM, the TGI (MALME-3M melanoma) was 20.8 µM and the GI50 (MCF7 breast) was 10.1 µM. It also gave a TGI (MCF7 breast) of 25.3 µM, a GI50 (NCI-H226 lung) of 27.2 µM and a TGI (NCI-H226 lung) of 68.5 µM. It also gave a GI50 (MOLT-4 leukemia) of 13.4 µM, a TGI (MOLT-4 leukemia) of 26.2 µM and a GI50 (OVCAR-5 ovarian) of 25.1 µM. It also gave a TGI (OVCAR-5 ovarian) of 65 µM, a GI50 (SF-295 CNS) of 11.9 µM and a TGI (SF-295 CNS) of 34.2 µM. For the same compound, the GI50 (MDA-MB-435 melanoma) was 8.13 µM, the TGI (MDA-MB-435 melanoma) was 29.1 µM and the GI50 (RPMI-8226 leukemia) was 6.64 µM. It also gave a TGI (RPMI-8226 leukemia) of 19.2 µM, a GI50 (HS 578T breast) of 14.4 µM and a TGI (HS 578T breast) of 28.5 µM. For the same compound, the GI50 (COLO 205 colon) was 10.2 µM, the TGI (COLO 205 colon) was 23.5 µM and the GI50 (CCRF-CEM leukemia) was 11.3 µM. For the same compound, the TGI (CCRF-CEM leukemia) was 23.4 µM, the GI50 (SNB-19 CNS) was 21.4 µM and the TGI (SNB-19 CNS) was 56.3 µM. It also gave a GI50 (PC-3 prostate) of 13.6 µM, a TGI (PC-3 prostate) of 27.1 µM and a GI50 (LOX IMVI melanoma) of 13 µM. It also gave a TGI (LOX IMVI melanoma) of 29.4 µM, a GI50 (DU-145 prostate) of 22.9 µM and a TGI (DU-145 prostate) of 88.9 µM. For the same compound, the GI50 (HT29 colon) was 14.1 µM, the TGI (HT29 colon) was 31.1 µM and the GI50 (OVCAR-8 ovarian) was 17.2 µM. For the same compound, the TGI (OVCAR-8 ovarian) was 37.4 µM, the GI50 (OVCAR-4 ovarian) was 19.1 µM and the TGI (OVCAR-4 ovarian) was 47.1 µM. The GI50 (K-562 leukemia) was 17 µM, the TGI (K-562 leukemia) was 31.1 µM and the GI50 (SK-MEL-28 melanoma) was 6.3 µM. The TGI (SK-MEL-28 melanoma) was 34.8 µM, the GI50 (NCI-H522 lung) was 13.2 µM and the TGI (NCI-H522 lung) was 26.1 µM. It also gave a GI50 (UO-31 renal) of 13.1 µM, a TGI (UO-31 renal) of 28.2 µM and a GI50 (MDA-MB-468 breast) of 11.7 µM. The TGI (MDA-MB-468 breast) was 25.2 µM, the GI50 (SW-620 colon) was 16.9 µM and the TGI (SW-620 colon) was 31.4 µM. For the same compound, the GI50 (NCI-H23 lung) was 14.1 µM, the TGI (NCI-H23 lung) was 27.6 µM and the GI50 (ACHN renal) was 15.7 µM. For the same compound, the TGI (ACHN renal) was 35.7 µM, the GI50 (HOP-62 NSCLC) was 20.4 µM and the TGI (HOP-62 NSCLC) was 39.9 µM. It also gave a GI50 (MDA-MB-231 breast) of 14 µM, a TGI (MDA-MB-231 breast) of 31.7 µM and a GI50 (SR leukemia) of 6.31 µM. The TGI (SR leukemia) was 18.8 µM, the GI50 (EKVX NSCLC) was 14.3 µM and the TGI (EKVX NSCLC) was 30.2 µM. It also gave a GI50 (HCT-15 colon) of 15.7 µM, a TGI (HCT-15 colon) of 30.6 µM and a GI50 (A549 NSCLC) of 17.2 µM. It also gave a TGI (A549 NSCLC) of 46 µM, a GI50 (CAKI-1 renal) of 21.3 µM and a TGI (CAKI-1 renal) of 43.9 µM. It also gave a GI50 (SNB-75 CNS) of 25.7 µM, a TGI (SNB-75 CNS) of 51.8 µM and a GI50 (SK-OV-3 ovarian) of 16.2 µM. The TGI (SK-OV-3 ovarian) was 34.8 µM, the GI50 (HCT-116 colon) was 16.3 µM and the TGI (HCT-116 colon) was 30.4 µM. For the same compound, the GI50 (SK-MEL-2 melanoma) was 15.4 µM, the TGI (SK-MEL-2 melanoma) was 30.7 µM and the GI50 (NCI-H460 NSCLC) was 14.9 µM. It also gave a TGI (NCI-H460 NSCLC) of 28.6 µM.
